Data on five compounds can be found in article PMC5652073 (ACS chemical biology, 2017).

Entries after “also recorded” stand apart in the source; their conditions may differ. Like-named read-outs stand apart in the source and are kept apart here.

In one test the target is T1, MEK7 (Homo sapiens, UniProt O14733).
T1 sequence (O14733 1-419): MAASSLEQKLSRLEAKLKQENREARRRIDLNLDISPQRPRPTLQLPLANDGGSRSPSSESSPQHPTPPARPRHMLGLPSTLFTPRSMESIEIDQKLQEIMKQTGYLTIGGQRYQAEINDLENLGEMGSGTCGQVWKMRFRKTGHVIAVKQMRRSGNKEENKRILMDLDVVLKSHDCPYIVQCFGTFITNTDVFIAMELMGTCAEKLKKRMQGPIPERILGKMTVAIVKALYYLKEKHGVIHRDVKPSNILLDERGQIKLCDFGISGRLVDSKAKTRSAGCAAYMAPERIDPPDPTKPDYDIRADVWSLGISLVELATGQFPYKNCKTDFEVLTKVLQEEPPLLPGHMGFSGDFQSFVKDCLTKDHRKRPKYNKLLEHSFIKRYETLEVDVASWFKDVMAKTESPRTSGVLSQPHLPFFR
The test is described as follows: ADP-Glo biochemical kinase assay, MEK7. The settings on record: functional profiling assay.

The target of the next test is T2, MEK6 (Homo sapiens, UniProt P52564).
T2 sequence (P52564 1-334): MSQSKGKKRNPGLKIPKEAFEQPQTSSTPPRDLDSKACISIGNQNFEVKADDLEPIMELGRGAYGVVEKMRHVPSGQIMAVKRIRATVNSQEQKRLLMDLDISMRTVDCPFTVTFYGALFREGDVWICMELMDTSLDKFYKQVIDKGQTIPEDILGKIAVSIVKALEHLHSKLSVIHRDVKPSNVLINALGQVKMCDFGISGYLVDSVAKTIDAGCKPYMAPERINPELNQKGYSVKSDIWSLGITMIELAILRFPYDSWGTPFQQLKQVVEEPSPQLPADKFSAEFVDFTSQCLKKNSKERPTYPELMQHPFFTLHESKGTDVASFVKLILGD
Nature of the test: ADP-Glo biochemical kinase assay, MEK6. In general terms: ADP-Glo turns the ADP formed in a reaction into a luminescent signal.

In a further test the target is T3, MEK4 (Homo sapiens, UniProt P45985).
T3 sequence (P45985 1-399): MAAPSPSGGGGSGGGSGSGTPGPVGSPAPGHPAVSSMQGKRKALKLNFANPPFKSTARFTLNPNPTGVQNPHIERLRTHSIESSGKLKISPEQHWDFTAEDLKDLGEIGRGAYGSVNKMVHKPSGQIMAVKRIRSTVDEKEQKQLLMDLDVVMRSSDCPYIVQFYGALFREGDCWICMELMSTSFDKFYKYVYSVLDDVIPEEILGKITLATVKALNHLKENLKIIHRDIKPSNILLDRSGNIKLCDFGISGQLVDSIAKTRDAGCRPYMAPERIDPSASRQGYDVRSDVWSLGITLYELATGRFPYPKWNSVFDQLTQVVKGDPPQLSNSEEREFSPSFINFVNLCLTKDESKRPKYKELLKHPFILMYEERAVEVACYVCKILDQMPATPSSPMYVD
The test is described as follows: ADP-Glo biochemical kinase assay, MEK4. The settings on record: read-out: IC50 against MEK4, ATP below Km.

The subject of the next test is c-KIT. The settings on record: read-out: inhibition of c-KIT, cell-free assay; cited from earlier work.
For another test, the system named is PDGFR. The settings on record: read-out: inhibition of PDGFR, cell-free assay; cited from earlier work.
In a further test the test system is VEGFR. The settings on record: read-out: inhibition of VEGFR, cell-free assay; cited from earlier work.
Another test deals with MEK5 (Homo sapiens, UniProt Q13163). Nature of the test: ADP-Glo biochemical kinase assay, MEK5. The settings on record: functional profiling assay.
Chain of MEK5 (Q13163 whole entry): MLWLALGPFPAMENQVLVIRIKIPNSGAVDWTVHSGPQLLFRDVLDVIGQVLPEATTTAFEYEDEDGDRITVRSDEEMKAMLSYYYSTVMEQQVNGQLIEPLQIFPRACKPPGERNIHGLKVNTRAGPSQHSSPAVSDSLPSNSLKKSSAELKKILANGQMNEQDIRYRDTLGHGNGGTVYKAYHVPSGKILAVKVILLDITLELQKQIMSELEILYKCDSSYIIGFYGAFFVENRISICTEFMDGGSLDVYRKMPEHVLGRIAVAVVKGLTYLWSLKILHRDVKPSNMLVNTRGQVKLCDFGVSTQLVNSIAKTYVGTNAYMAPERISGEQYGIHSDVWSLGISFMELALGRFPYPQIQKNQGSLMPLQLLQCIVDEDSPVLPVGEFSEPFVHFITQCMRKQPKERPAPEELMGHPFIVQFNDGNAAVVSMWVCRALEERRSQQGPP

Regarding `CN(C)C[C@@H]1CCn2cc(c3ccccc32)C2=C(C(=O)NC2=O)c2cn(c3ccccc23)CCO1` [LY-333531], the “inhibition of MEK7 (in words)” value at MEK7 was “inhibition”. On to `O=C(c1c(F)cccc1F)c1c[nH]c2ncc(Cl)cc12` [compound 3a], for which the IC50 worked out at 75.1 µM at MEK6 (read-out: IC50 against MEK6, ADP-Glo, ATP below Km) and 6.9 µM at MEK4. Consider “5-[[4-[(2, 3-Dimethyl-2 H-indazol-6-yl) methylamino]-2-pyrimidinyl] amino]-2-methyl-benzene-sulfonamide [Pazopanib]”, for which the IC50 with c-KIT was 0.14 µM; with PDGFR it was 0.084 µM; in the test on VEGFR it was 0.01 to 0.047 µM. For `CCN1CCN(Cc2ccc(NC(=O)Nc3ccc(Oc4cc(NC)ncn4)cc3)cc2C(F)(F)F)CC1` [AST-487], the “inhibition of MEK5 (in words)” value on MEK5 is “strongly inhibited”. For the same compound, on MEK7, the “inhibition of MEK7 (in words)” value is on record as “inhibition; also recorded: strongly inhibited”. Turning to `CCCS(=O)(=O)Nc1ccc(F)c(C(=O)c2c[nH]c3ncc(Cl)cc23)c1F` [PLX-4720], the IC50 against MEK6 came to 60 µM.
